Where “and” joins values, the source holds several entries; their conditions need not be identical. Equal entries are not always repeated. Inconclusive results and toxic doses are left out.
Test system: CD2F1 mice, L1210 leukemia ip, survival T/C
Test: NCI In Vivo Anticancer Drug Screen. Data for tumor model L1210 Leukemia (intraperitoneal) in CD2F1 (CDF1) mice
Settings: higher = longer survival
Method in brief: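 Implant tumor; dose compound or vehicle; measure endpoint in both groups; report treated divided by control.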

[1] = endpoint: mean survival time, dose: 100.0 mg/kg/injection, schedule: Q01DX009 (ip), vehicle: saline with Tween-80
[2] = endpoint: mean survival time, dose: 200.0 mg/kg/injection, schedule: Q01DX009 (ip), vehicle: saline with Tween-80

SMILES: CC[C@](O)(C(=O)O)c1cc2n(c(=O)c1CO)Cc1cc3ccccc3nc1-2
- T/C (endpoint: mean survival time, dose: 1.0 mg/kg/injection, schedule: Q04DX003 (ip), vehicle: water): 100 % of control
- T/C (endpoint: mean survival time, dose: 2.0 mg/kg/injection, schedule: Q04DX003 (ip), vehicle: water): 107 % of control
- T/C (endpoint: mean survival time, dose: 4.0 mg/kg/injection, schedule: Q04DX003 (ip), vehicle: water): 108 % of control
- T/C (endpoint: mean survival time, dose: 12.5 mg/kg/injection, schedule: Q04DX003 (ip), vehicle: water): 159 % of control
- T/C (endpoint: mean survival time, dose: 16.0 mg/kg/injection, schedule: Q04DX003 (ip), vehicle: water): 175 % of control
- T/C (endpoint: mean survival time, dose: 50.0 mg/kg/injection, schedule: Q04DX003 (ip), vehicle: water): 113 % of control and 119 % of control
- T/C (endpoint: mean survival time, dose: 100.0 mg/kg/injection, schedule: Q04DX003 (ip), vehicle: water): 93 % of control
- T/C (endpoint: median survival time, dose: 3.75 mg/kg/injection, schedule: Q04HX004 (iv), vehicle: water): 115 % of control
- T/C (endpoint: median survival time, dose: 5.0 mg/kg/injection, schedule: Q04DX002 (ip), vehicle: water): 117 % of control and 121 % of control and 123 % of control
- T/C (endpoint: median survival time, dose: 5.0 mg/kg/injection, schedule: Q04DX002 (iv), vehicle: water): 115 % of control
- T/C (endpoint: median survival time, dose: 6.2 mg/kg/injection, schedule: Q04HX004 (iv), vehicle: water): 167 % of control
- T/C (endpoint: median survival time, dose: 6.25 mg/kg/injection, schedule: Q04HX004 (iv), vehicle: saline): 177 % of control
- T/C (endpoint: median survival time, dose: 6.25 mg/kg/injection, schedule: Q04HX004 (iv), vehicle: water): 162 % of control and 178 % of control
- T/C (endpoint: median survival time, dose: 7.5 mg/kg/injection, schedule: Q04HX004 (iv), vehicle: other): 170 % of control
- T/C (endpoint: median survival time, dose: 7.5 mg/kg/injection, schedule: Q04HX004 (iv), vehicle: water): 166 % of control and 180 % of control
- T/C (endpoint: median survival time, dose: 12.5 mg/kg/injection, schedule: Q04DX003 (ip), vehicle: clinical formulation): 178 % of control
- T/C (endpoint: median survival time, dose: 12.5 mg/kg/injection, schedule: Q04DX003 (ip), vehicle: saline): 167 % of control
- T/C (endpoint: median survival time, dose: 12.5 mg/kg/injection, schedule: Q04HX004 (iv), vehicle: saline): 160 % of control and 190 % of control
- T/C (endpoint: median survival time, dose: 12.5 mg/kg/injection, schedule: Q04HX004 (iv), vehicle: water): 177 % of control and 193 % of control and 196 % of control
- T/C (endpoint: median survival time, dose: 15.0 mg/kg/injection, schedule: Q04HX004 (iv), vehicle: dextrose): 195 % of control
- T/C (endpoint: median survival time, dose: 15.0 mg/kg/injection, schedule: Q04HX004 (iv), vehicle: other): 192 % of control
- T/C (endpoint: median survival time, dose: 15.0 mg/kg/injection, schedule: Q04HX004 (iv), vehicle: water): 200 % of control and 208 % of control
- T/C (endpoint: median survival time, dose: 20.0 mg/kg/injection, schedule: Q04DX002 (ip), vehicle: saline): 151 % of control and 168 % of control (2×)
- T/C (endpoint: median survival time, dose: 25.0 mg/kg/injection, schedule: Q04DX002 (ip), vehicle: water): 156 % of control and 195 % of control
- T/C (endpoint: median survival time, dose: 25.0 mg/kg/injection, schedule: Q04DX003 (ip), vehicle: clinical formulation): 229 % of control
- T/C (endpoint: median survival time, dose: 25.0 mg/kg/injection, schedule: Q04DX003 (ip), vehicle: saline): 218 % of control
- T/C (endpoint: median survival time, dose: 25.0 mg/kg/injection, schedule: Q04HX004 (iv), vehicle: saline): 198 % of control and 226 % of control
- T/C (endpoint: median survival time, dose: 25.0 mg/kg/injection, schedule: Q04HX004 (iv), vehicle: water): 206 % of control and 212 % of control and 230 % of control
- T/C (endpoint: median survival time, dose: 30.0 mg/kg/injection, schedule: Q04HX004 (iv), vehicle: dextrose): 227 % of control
- T/C (endpoint: median survival time, dose: 30.0 mg/kg/injection, schedule: Q04HX004 (iv), vehicle: other): 219 % of control
- T/C (endpoint: median survival time, dose: 30.0 mg/kg/injection, schedule: Q04HX004 (iv), vehicle: water): 220 % of control and 227 % of control
- T/C (endpoint: median survival time, dose: 40.0 mg/kg/injection, schedule: Q04DX002 (ip), vehicle: saline): 181 % of control and 185 % of control and 200 % of control
- T/C (endpoint: median survival time, dose: 40.0 mg/kg/injection, schedule: Q04DX002 (iv), vehicle: water): 183 % of control
- T/C (endpoint: median survival time, dose: 40.0 mg/kg/injection, schedule: Q04HX004 (iv), vehicle: other): 247 % of control
- T/C (endpoint: median survival time, dose: 40.0 mg/kg/injection, schedule: Q04HX004 (iv), vehicle: water): 226 % of control and 253 % of control
- T/C (endpoint: median survival time, dose: 50.0 mg/kg/injection, schedule: Q04DX002 (ip), vehicle: water): 173 % of control and 217 % of control
- T/C (endpoint: median survival time, dose: 50.0 mg/kg/injection, schedule: Q04DX003 (ip), vehicle: saline): 263 % of control
- T/C (endpoint: median survival time, dose: 50.0 mg/kg/injection, schedule: Q04HX004 (iv), vehicle: saline): 211 % of control and 256 % of control
- T/C (endpoint: median survival time, dose: 50.0 mg/kg/injection, schedule: Q04HX004 (iv), vehicle: water): 225 % of control and 261 % of control and 101 % of control
- T/C (endpoint: median survival time, dose: 80.0 mg/kg/injection, schedule: Q04DX002 (ip), vehicle: saline): 205 % of control and 216 % of control and 227 % of control
- T/C (endpoint: median survival time, dose: 80.0 mg/kg/injection, schedule: Q04DX002 (iv), vehicle: water): 252 % of control
- T/C (endpoint: median survival time, dose: 100.0 mg/kg/injection, schedule: Q04DX002 (ip), vehicle: water): 204 % of control and 233 % of control
- T/C (endpoint: median survival time, dose: 100.0 mg/kg/injection, schedule: Q04DX003 (ip), vehicle: saline): 108 % of control

SMILES: COc1ccc(C(O)c2ccccc2C(=O)Nc2ccccc2)cc1 (configuration not stated)
- T/C (endpoint: mean survival time, dose: 100.0 mg/kg/injection, schedule: Q04DX003 (ip), vehicle: saline with Tween-80): 93 % of control
- T/C (endpoint: mean survival time, dose: 200.0 mg/kg/injection, schedule: Q04DX003 (ip), vehicle: saline with Tween-80): 92 % of control
- T/C (endpoint: mean survival time, dose: 400.0 mg/kg/injection, schedule: Q04DX003 (ip), vehicle: saline with Tween-80): 88 % of control

SMILES: Nc1nc(=S)c2[nH]c(N=Nc3ccc(S(N)(=O)=O)cc3)nc2[nH]1
- T/C (endpoint: mean survival time, dose: 50.0 mg/kg/injection, schedule: Q04DX003 (ip), vehicle: Klucel (hydroxypropylcellulose) (HPC)): 123 % of control

SMILES: Cc1ccc(S(=O)(=O)/C=C(\C=C/c2ccccc2)c2ccccc2)cc1
- T/C (endpoint: mean survival time, dose: 50.0 mg/kg/injection, schedule: Q01DX009 (ip), vehicle: saline with Tween-80): 103 % of control
- T/C [1]: 103 % of control
- T/C [2]: 106 % of control

SMILES: CN(C)CCN(C)CCN(C)CCN(C)C
- T/C (endpoint: mean survival time, dose: 100.0 mg/kg/injection, schedule: Q04DX003 (ip), vehicle: saline): 95 % of control
- T/C (endpoint: mean survival time, dose: 200.0 mg/kg/injection, schedule: Q04DX003 (ip), vehicle: saline): 97 % of control
- T/C (endpoint: mean survival time, dose: 400.0 mg/kg/injection, schedule: Q04DX003 (ip), vehicle: saline): 108 % of control

SMILES: NN1C(=O)Cc2ccccc2C1=O
- T/C [1]: 103 % of control
- T/C [2]: 109 % of control
- T/C (endpoint: mean survival time, dose: 400.0 mg/kg/injection, schedule: Q01DX009 (ip), vehicle: saline with Tween-80): 105 % of control

SMILES: CCCCCCCCCCCCC/C=N/NC(=O)c1ccc[n+](C)c1
- T/C (endpoint: mean survival time, dose: 100.0 mg/kg/injection, schedule: Q01DX001 (ip), vehicle: saline with Tween-80): 93 % of control
- T/C (endpoint: mean survival time, dose: 200.0 mg/kg/injection, schedule: Q01DX001 (ip), vehicle: saline with Tween-80): 98 % of control

SMILES: CCCCCCC(C#N)C(=O)OCC (configuration not stated)
- T/C (endpoint: mean survival time, dose: 75.0 mg/kg/injection, schedule: Q01DX001 (ip), vehicle: saline): 100 % of control
- T/C (endpoint: mean survival time, dose: 150.0 mg/kg/injection, schedule: Q01DX001 (ip), vehicle: saline): 96 % of control
- T/C (endpoint: mean survival time, dose: 300.0 mg/kg/injection, schedule: Q01DX001 (ip), vehicle: saline): 100 % of control

SMILES: O=C(Nc1ccccc1)OC1CCCCC1OC(=O)Nc1ccccc1 (configuration not stated)
- T/C (endpoint: mean survival time, dose: 400.0 mg/kg/injection, schedule: Q01DX001 (ip), vehicle: saline with Tween-80): 86 % of control

— PubChem BioAssay AID256 (DTP/NCI, 2004)
